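Tested at 5 concentrations; 48 h exposure; 96-well plates; endpoints linearly interpolated, else capped at highest concentration. GI50: concentration for 50% inhibition of growth.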 Activity calls are given as the source filed them. No stated cut-off is given here; in the data, active = GI50 up to about 1.1 µM and inactive = higher.
What was measured:
Test in all cases: DTP human tumour cell line panel, 48 h
[1] = tested on: XF498
[2] = tested on: SN12C
[3] = tested on: 786-0
[4] = tested on: SNB-75
[5] = tested on: HT-29
[6] = tested on: NCI-H226
[7] = tested on: SW-620
[8] = tested on: HOP-92
[9] = tested on: DMS-114
[10] = tested on: UACC-257
[11] = tested on: SF-268
[12] = tested on: OVCAR-8
[13] = tested on: TK-10
[14] = tested on: M19-MEL
[15] = tested on: LXFL 529
[16] = tested on: EKVX
[17] = tested on: M14
[18] = tested on: LOX IMVI
[19] = tested on: HCC 2998
[20] = tested on: SR
[21] = tested on: HL-60
[22] = tested on: OVCAR-4
[23] = tested on: CAKI-1
[24] = tested on: OVCAR-5
[25] = tested on: K562
[26] = tested on: SNB-19
[27] = tested on: A498
[28] = tested on: IGROV-1
[29] = tested on: SK-MEL-2
[30] = tested on: COLO 205
[31] = tested on: MOLT-4
[32] = tested on: Malme-3M
[33] = tested on: NCI-H460
[34] = tested on: OVCAR-3
[35] = tested on: CCRF-CEM
[36] = tested on: HOP-18
[37] = tested on: SF-295
[38] = tested on: HCT-15
[39] = tested on: SNB-78
[40] = tested on: U-251
[41] = tested on: HOP-62
[42] = tested on: DMS-273
[43] = tested on: UACC-62
[44] = tested on: ACHN
[45] = tested on: KM-20L2
[46] = tested on: SK-OV-3
[47] = tested on: RXF 393
[48] = tested on: NCI-H23
[49] = tested on: KM12
[50] = tested on: A549
[51] = tested on: UO-31
[52] = tested on: RPMI-8226
[53] = tested on: SK-MEL-5
[54] = tested on: DLD-1
[55] = tested on: SF-539
[56] = tested on: HCT-116
[57] = tested on: NCI/ADR-RES
[58] = tested on: NCI-H522
[59] = tested on: SK-MEL-28
[60] = tested on: MCF7

C[n+]1ccc(-c2cc[n+](C)cc2)cc1 [PARAQUAT DICHLORIDE]
GI50 [1]: 3.74 µM (inactive)
GI50 [2]: 10.2 µM (inactive)
GI50 [3]: > 100 µM (inactive)
GI50 [4]: 33.5 µM (inactive)
GI50 [5]: 10.8 µM (inactive)
GI50 [6]: 8.43 µM (inactive)
GI50 [7]: > 42 µM (inactive)
GI50 [8]: > 44.5 µM (inactive)
GI50 [9]: 8.75 µM (inactive)
GI50 [10]: 1.5 µM (inactive)
GI50 [11]: > 22.5 µM (inactive)
GI50 [12]: > 30 µM (inactive)
GI50 [13]: > 53.6 µM (inactive)
GI50 [14]: 9.42 µM (inactive)
GI50 [15]: > 37.1 µM (inactive)
GI50 [16]: > 30.6 µM (inactive)
GI50 [17]: 13.9 µM (inactive)
GI50 [18]: > 22.9 µM (inactive)
GI50 [19]: 14.5 µM (inactive)
GI50 [20]: 11.6 µM (inactive)
GI50 [21]: 10 µM (inactive)
GI50 [22]: 1.55 µM (inactive)
GI50 [23]: > 100 µM (inactive)
GI50 [24]: 19.7 µM (inactive)
GI50 [25]: > 100 µM (inactive)
GI50 [26]: 4.99 µM (inactive)
GI50 [27]: > 32.6 µM (inactive)
GI50 [28]: 18 µM (inactive)
GI50 [29]: 2.69 µM (inactive)
GI50 [30]: 14.8 µM (inactive)
GI50 [31]: > 34.5 µM (inactive)
GI50 [32]: 0.265 µM (active)
GI50 [33]: 9.42 µM (inactive)
GI50 [34]: 14 µM (inactive)
GI50 [35]: > 48.4 µM (inactive)
GI50 [36]: > 100 µM (inactive)
GI50 [37]: > 19.6 µM (inactive)
GI50 [38]: > 32.4 µM
GI50 [39]: > 22.3 µM (inactive)
GI50 [40]: > 32.8 µM (inactive)
GI50 [41]: 14.7 µM (inactive)
GI50 [42]: 10.5 µM (inactive)
GI50 [43]: 7.19 µM (inactive)
GI50 [44]: > 26.4 µM (inactive)
GI50 [45]: 17 µM (inactive)
GI50 [46]: > 24.7 µM (inactive)
GI50 [47]: 0.644 µM (active)
GI50 [48]: 12.2 µM (inactive)
GI50 [49]: 5.83 µM (inactive)
GI50 [50]: 12.1 µM (inactive)
GI50 [51]: > 100 µM (inactive)
GI50 [52]: > 70 µM (inactive)
GI50 [53]: 11.5 µM (inactive)
GI50 [54]: > 30.3 µM (inactive)
GI50 [55]: 20.7 µM (inactive)

CCOC(=O)/C=C/c1c[nH]c(C(=O)OCC)c1
GI50 [56]: > 100 µM (inactive)
GI50 [1]: > 95.1 µM (inactive)
GI50 [2]: > 100 µM (inactive)
GI50 [4]: > 66.1 µM (inactive)
GI50 [5]: > 100 µM (inactive)
GI50 [6]: > 100 µM (inactive)
GI50 [7]: > 100 µM (inactive)
GI50 [8]: > 100 µM (inactive)
GI50 [9]: > 100 µM (inactive)
GI50 [57]: > 100 µM (inactive)
GI50 [10]: > 100 µM (inactive)
GI50 [11]: > 100 µM (inactive)
GI50 [12]: > 100 µM (inactive)
GI50 [14]: > 100 µM (inactive)
GI50 [16]: > 85.7 µM (inactive)
GI50 [18]: > 100 µM (inactive)
GI50 [19]: > 100 µM (inactive)
GI50 [58]: > 90.8 µM (inactive)
GI50 [21]: > 100 µM (inactive)
GI50 [22]: > 100 µM (inactive)
GI50 [23]: > 100 µM (inactive)
GI50 [24]: > 100 µM (inactive)
GI50 [25]: 51.5 µM (inactive)
GI50 [26]: > 100 µM (inactive)
GI50 [27]: > 100 µM (inactive)
GI50 [28]: > 100 µM (inactive)
GI50 [29]: > 100 µM (inactive)
GI50 [30]: > 100 µM (inactive)
GI50 [31]: > 100 µM (inactive)
GI50 [32]: > 100 µM (inactive)
GI50 [33]: > 100 µM (inactive)
GI50 [34]: > 100 µM (inactive)
GI50 [35]: > 100 µM (inactive)
GI50 [36]: > 100 µM (inactive)
GI50 [37]: > 100 µM (inactive)
GI50 [38]: > 100 µM
GI50 [39]: > 86.1 µM (inactive)
GI50 [59]: > 100 µM (inactive)
GI50 [40]: > 100 µM (inactive)
GI50 [41]: > 100 µM (inactive)
GI50 [42]: > 100 µM (inactive)
GI50 [43]: > 69.3 µM (inactive)
GI50 [45]: > 100 µM (inactive)
GI50 [46]: > 100 µM (inactive)
GI50 [47]: > 100 µM (inactive)
GI50 [48]: > 100 µM (inactive)
GI50 [49]: > 100 µM (inactive)
GI50 [50]: > 100 µM (inactive)
GI50 [51]: > 100 µM (inactive)
GI50 [52]: > 100 µM (inactive)
GI50 [53]: > 100 µM (inactive)
GI50 [54]: > 100 µM (inactive)
GI50 [60]: > 100 µM (inactive)
GI50 [55]: > 100 µM (inactive)

Cc1ccc(NC(=O)/C(=N/NC(=O)CC#N)C2C(=O)N(c3ccccc3)N=C2N)cc1C (stereo not given)
GI50 [56]: > 100 µM (inactive)
GI50 [1]: > 100 µM (inactive)
GI50 [2]: > 100 µM (inactive)
GI50 [3]: > 100 µM (inactive)
GI50 [4]: > 100 µM (inactive)
GI50 [5]: > 100 µM (inactive)
GI50 [6]: > 100 µM (inactive)
GI50 [7]: > 100 µM (inactive)
GI50 [8]: > 100 µM (inactive)
GI50 [9]: > 100 µM (inactive)
GI50 [10]: > 100 µM (inactive)
GI50 [11]: > 100 µM (inactive)
GI50 [12]: > 100 µM (inactive)
GI50 [13]: > 100 µM (inactive)
GI50 [14]: > 100 µM (inactive)
GI50 [15]: > 100 µM (inactive)
GI50 [16]: > 100 µM (inactive)
GI50 [17]: > 100 µM (inactive)
GI50 [18]: > 100 µM (inactive)
GI50 [19]: > 100 µM (inactive)
GI50 [58]: > 100 µM (inactive)
GI50 [20]: > 100 µM (inactive)
GI50 [21]: > 100 µM (inactive)
GI50 [22]: > 100 µM (inactive)
GI50 [23]: > 100 µM (inactive)
GI50 [24]: > 100 µM (inactive)
GI50 [25]: > 100 µM (inactive)
GI50 [26]: > 100 µM (inactive)
GI50 [27]: > 100 µM (inactive)
GI50 [28]: > 100 µM (inactive)
GI50 [29]: > 100 µM (inactive)
GI50 [30]: > 100 µM (inactive)
GI50 [31]: > 100 µM (inactive)
GI50 [32]: > 100 µM (inactive)
GI50 [33]: > 100 µM (inactive)
GI50 [34]: > 100 µM (inactive)
GI50 [35]: > 100 µM (inactive)
GI50 [36]: > 100 µM (inactive)
GI50 [37]: > 100 µM (inactive)
GI50 [38]: > 100 µM
GI50 [39]: > 100 µM (inactive)
GI50 [59]: > 100 µM (inactive)
GI50 [40]: > 100 µM (inactive)
GI50 [41]: > 100 µM (inactive)
GI50 [42]: > 100 µM (inactive)
GI50 [43]: > 100 µM (inactive)
GI50 [44]: > 100 µM (inactive)
GI50 [45]: > 100 µM (inactive)
GI50 [46]: > 100 µM (inactive)
GI50 [47]: > 100 µM (inactive)
GI50 [48]: > 100 µM (inactive)
GI50 [49]: > 100 µM (inactive)
GI50 [50]: > 100 µM (inactive)
GI50 [51]: > 100 µM (inactive)
GI50 [52]: > 100 µM (inactive)
GI50 [53]: > 100 µM (inactive)
GI50 [54]: > 100 µM (inactive)
GI50 [55]: > 100 µM (inactive)

CC(O)CN1C(=O)NC(Cc2ccccc2)C1=O (stereo not given)
GI50 [1]: > 100 µM (inactive)
GI50 [2]: > 100 µM (inactive)
GI50 [3]: > 100 µM (inactive)
GI50 [4]: > 100 µM (inactive)
GI50 [5]: > 100 µM (inactive)
GI50 [6]: > 100 µM (inactive)
GI50 [7]: > 100 µM (inactive)
GI50 [8]: > 100 µM (inactive)
GI50 [9]: > 100 µM (inactive)
GI50 [10]: > 100 µM (inactive)
GI50 [11]: > 100 µM (inactive)
GI50 [12]: > 100 µM (inactive)
GI50 [13]: > 100 µM (inactive)
GI50 [15]: > 100 µM (inactive)
GI50 [16]: > 100 µM (inactive)
GI50 [17]: > 100 µM (inactive)
GI50 [18]: > 100 µM (inactive)
GI50 [19]: > 100 µM (inactive)
GI50 [58]: > 100 µM (inactive)
GI50 [20]: > 100 µM (inactive)
GI50 [21]: > 100 µM (inactive)
GI50 [23]: > 100 µM (inactive)
GI50 [24]: > 100 µM (inactive)
GI50 [26]: > 100 µM (inactive)
GI50 [29]: > 100 µM (inactive)
GI50 [30]: > 100 µM (inactive)
GI50 [33]: > 100 µM (inactive)
GI50 [36]: > 100 µM (inactive)
GI50 [37]: > 100 µM (inactive)
GI50 [39]: > 100 µM (inactive)
GI50 [59]: > 100 µM (inactive)
GI50 [40]: > 100 µM (inactive)
GI50 [41]: 29.5 µM (inactive)
GI50 [42]: > 100 µM (inactive)
GI50 [44]: > 100 µM (inactive)
GI50 [45]: > 100 µM (inactive)
GI50 [47]: > 100 µM (inactive)
GI50 [48]: > 100 µM (inactive)
GI50 [49]: > 100 µM (inactive)
GI50 [50]: > 100 µM (inactive)
GI50 [51]: > 100 µM (inactive)
GI50 [54]: > 100 µM (inactive)
GI50 [55]: > 100 µM (inactive)

From ChEMBL document CHEMBL1201862, “PubChem BioAssay data set” (2004)
